Data as given in patent US20240398828A1, “HETERO-ATOM CONTAINING COMPOUNDS AND USES THEREOF” (Kumquat Biosciences Inc., priority 2021, published 2024).
pIC50: −log10 of the molar value.

Columns and labels:
PTPN1 (i.e., PTP1B) = target: T1, PTPN1 (i.e., PTP1B) (Homo sapiens, UniProt P18031); test: Phosphatase activity assay (DiFMUP substrate), PTP1B; type: biochemical; conditions: compounds binned ≤1 uM or >1 uM
T1 sequence (P18031 1-435): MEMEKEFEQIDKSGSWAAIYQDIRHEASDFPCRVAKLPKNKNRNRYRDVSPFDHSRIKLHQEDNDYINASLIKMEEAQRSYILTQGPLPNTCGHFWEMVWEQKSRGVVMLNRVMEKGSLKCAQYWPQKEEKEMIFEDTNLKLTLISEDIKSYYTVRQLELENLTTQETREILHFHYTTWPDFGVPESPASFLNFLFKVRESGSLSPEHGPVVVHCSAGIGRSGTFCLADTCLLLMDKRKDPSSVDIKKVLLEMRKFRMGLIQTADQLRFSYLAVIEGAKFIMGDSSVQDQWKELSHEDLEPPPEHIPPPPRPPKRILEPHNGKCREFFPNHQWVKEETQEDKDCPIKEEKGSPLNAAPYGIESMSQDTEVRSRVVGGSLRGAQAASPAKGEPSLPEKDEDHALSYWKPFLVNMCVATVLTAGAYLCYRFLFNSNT
Protocol: (§1) The selectivity and potency of a small molecule PTPN2 inhibitor as provided herein against one or more protein tyrosine phosphatase (PTP) enzymes, and specifically against PTPN2, is assessed in various ways. The one or more PTP enzymes comprise Mycobacterium protein tyrosine phosphatase A (mPTPA), Mycobacterium protein tyrosine phosphatase B (mPTPB), PTPN1 (i.e., PTP1B), PTPN2 (i.e., TC-PTP), PTPN22 (i.e., LYP), SHP-1, SHP-2, FAP-1, Meg2, HePTP, Laforin, VHX, VHR, LMWPTP, Cdc14A, LAR, CD45, PTPRG, a fragment thereof, a variant thereof, and a combination thereof. Selectivity and potency of a small molecule PTPN2 inhibitor is evaluated using a PTP activity inhibition assay. The assay is performed using a buffer comprising 50 mM HEPES buffer pH 7.5, 150 mM NaCl, 0.5 mM EDTA, 1 mM DTT, 0.001% Tween-20.
(§2) The assay is performed using a phosphated substrate, e.g., 10 mM 6,8-Difluoro-4-Methylumbelliferyl Phosphate (DIFMUP) that is stored at −20° C. Alternatively or in addition to, the assay is performed using other phosphated substrate (e.g., fluorescein diphosphate). Each PTP enzyme is diluted in the assay buffer
(§3) The assay can be carried out at room temperature in multiplate format, e.g., using 384 well plates. A small molecule PTPN2 inhibitor dissolved in DMSO at one of 10 concentrations from a serial dilution or DMSO alone for control is added to each well. A mixture of the assay buffer comprising PTP enzyme (e.g., 0.025 ng/ul PTPN2) is added to each well and mixed for approximately 2 minutes. The reaction is initiated by adding DiFMUP diluted in the assay buffer to a final concentration of approximately 45 μM DiFMUP in PTPN2 assay. For each PTP enzyme, DiFMUP is added at the Km (Michaelis constant) of the enzyme that had been independently determined. The phosphatase activity of the PTP enzyme is assessed by monitoring appearance of a fluorescent product (6,8-difluoro-7-hydroxyl-4-coumarin (DiFMU) from DiFMUP) continuously for about 15 to 30 minutes, using the INFINITE M1000Pro plate reader (Tecan) with excitation at 360 nm and emission at 450 nm (cutoff filter at 435 nm) for DiFMU. Each assay is performed at least in duplicate. The rate (e.g., the initial rate) of DiFMU formation is plotted against the concentration of the small molecule PTPN2 inhibitor, and the data is fitted (e.g., using a 4-parameter equation) to determine the inflection point of the fit as the IC50 of the small molecule PTPN2 inhibitor for a specific enzyme. Utilizing this assay, the ability of the compounds in Table 2 to inhibit PTPN2 and PTP1B has been assessed. Table 3 summarizes the IC50 values.

PTPN2 (i.e., TC-PTP) = target: T2, PTPN2 (i.e., TC-PTP) (Homo sapiens, UniProt P17706); test: Phosphatase activity assay (DiFMUP substrate), PTPN2; type: biochemical; conditions: compounds binned ≤1 uM or >1 uM
T2 sequence (P17706 1-415): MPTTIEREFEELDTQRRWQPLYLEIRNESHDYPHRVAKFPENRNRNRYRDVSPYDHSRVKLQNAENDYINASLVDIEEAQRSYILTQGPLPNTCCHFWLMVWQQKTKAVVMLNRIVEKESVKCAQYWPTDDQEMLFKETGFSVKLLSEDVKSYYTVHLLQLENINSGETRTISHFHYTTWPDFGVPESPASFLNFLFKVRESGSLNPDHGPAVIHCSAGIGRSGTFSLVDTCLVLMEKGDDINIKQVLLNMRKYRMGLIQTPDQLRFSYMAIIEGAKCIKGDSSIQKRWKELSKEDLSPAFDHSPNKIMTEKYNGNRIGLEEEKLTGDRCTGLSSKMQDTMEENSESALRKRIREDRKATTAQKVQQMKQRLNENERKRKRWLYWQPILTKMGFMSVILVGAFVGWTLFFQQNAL
Protocol: as §1, §2, §3

| Compound | pIC50 (PTPN1 (i.e., PTP1B)) | pIC50 (PTPN2 (i.e., TC-PTP)) |
| --- | --- | --- |
| Cc1cc(-c2cnn(CCC(C)C)c2)cc(N2CC(=O)NS2(=O)=O)c1O [Compound 145, 5-(2-hydroxy-5-(1-isopentyl-1H-pyrazol-4-yl)-3-methylphenyl)-1,2,5-thiadiazolidin-3-one 1,1-dioxide] | < 6.00 | < 6.00 |
| COCC#Cc1cc(-c2ccc(O)c(N3CC(=O)NS3(=O)=O)c2F)[nH]n1 [Compound 274, 5-(2-fluoro-6-hydroxy-3-(3-(3-methoxyprop-1-yn-1-yl)-1H-pyrazol-5-yl)phenyl)-1,2,5-thiadiazolidin-3-one 1,1-dioxide] | ≥ 6.00 | ≥ 6.00 |
| CC(C)CCn1cnc(-c2ccc(O)c(N3CC(=O)NS3(=O)=O)c2F)c1 [Compound 216, 5-(2-fluoro-6-hydroxy-3-(1-isopentyl-1H-imidazol-4-yl)phenyl)-1,2,5-thiadiazolidin-3-one 1,1-dioxide] | ≥ 6.00 | ≥ 6.00 |
| N#CCCc1cc(-c2ccc(O)c(N3CC(=O)NS3(=O)=O)c2F)n[nH]1 [Compound 373, 3-(3-(3-(1,1-dioxido-4-oxo-1,2,5-thiadiazolidin-2-yl)-2-fluoro-4-hydroxyphenyl)-1H-pyrazol-5-yl)propanenitrile] | ≥ 6.00 | ≥ 6.00 |
| CC(C)(C#N)c1cc(-c2ccc(O)c(N3CC(=O)NS3(=O)=O)c2F)[nH]n1 [Compound 368, 2-(5-(3-(1,1-dioxido-4-oxo-1,2,5-thiadiazolidin-2-yl)-2-fluoro-4-hydroxyphenyl)-1H-pyrazol-3-yl)-2-methylpropanenitrile] | ≥ 6.00 | ≥ 6.00 |
| O=C1CN(c2c(O)ccc(-c3cnn(-c4cccnc4)c3)c2F)S(=O)(=O)N1 [Compound 102, 5-(2-fluoro-6-hydroxy-3-(1-(pyridin-3-yl)-1H-pyrazol-4-yl)phenyl)-1,2,5-thiadiazolidin-3-one 1,1-dioxide] | ≥ 6.00 | ≥ 6.00 |
| O=C1CN(c2c(O)ccc(-c3cc(C4CC4)n[nH]3)c2F)S(=O)(=O)N1 [Compound 421, 5-(3-(3-cyclopropyl-1H-pyrazol-5-yl)-2-fluoro-6-hydroxyphenyl)-1,2,5-thiadiazolidin-3-one 1,1-dioxide] | ≥ 6.00 | ≥ 6.00 |
| CC(C)CCc1cc(-c2ccc(O)c(N3CC(=O)NS3(=O)=O)c2F)[nH]n1 [Compound 389, 5-(2-fluoro-6-hydroxy-3-(3-isopentyl-1H-pyrazol-5-yl)phenyl)-1,2,5-thiadiazolidin-3-one 1,1-dioxide] | ≥ 6.00 | ≥ 6.00 |
| Cc1noc(C)c1Cn1cc(-c2ccc(O)c(N3CC(=O)NS3(=O)=O)c2F)cn1 [Compound 309, 5-(3-(1-((3,5-dimethylisoxazol-4-yl)methyl)-1H-pyrazol-4-yl)-2-fluoro-6-hydroxyphenyl)-1,2,5-thiadiazolidin-3-one 1,1-dioxide] | ≥ 6.00 | ≥ 6.00 |
| O=C1CN(c2c(O)ccc(-c3cnc(C4CC4)[nH]3)c2F)S(=O)(=O)N1 [Compound 406, 5-(3-(2-cyclopropyl-1H-imidazol-5-yl)-2-fluoro-6-hydroxyphenyl)-1,2,5-thiadiazolidin-3-one 1,1-dioxide] | ≥ 6.00 | ≥ 6.00 |
| CNC(=O)n1nc(-c2ccc(O)c(N3CC(=O)NS3(=O)=O)c2F)cc1C1CC1 [Compound 543, 5-cyclopropyl-3-(3-(1,1-dioxido-4-oxo-1,2,5-thiadiazolidin-2-yl)-2-fluoro-4-hydroxyphenyl)-N-methyl-1H-pyrazole-1-carboxamide] | ≥ 6.00 | ≥ 6.00 |
| Cc1ncc(-c2ccc(O)c(N3CC(=O)NS3(=O)=O)c2F)cn1 [Compound 139, 5-(2-fluoro-6-hydroxy-3-(2-methylpyrimidin-5-yl)phenyl)-1,2,5-thiadiazolidin-3-one 1,1-dioxide] | ≥ 6.00 | ≥ 6.00 |
| O=C1CN(c2c(O)ccc(C3=CCN(CC(F)F)C3)c2F)S(=O)(=O)N1 [Compound 521, 5-(3-(1-(2,2-difluoroethyl)-2,5-dihydro-1H-pyrrol-3-yl)-2-fluoro-6-hydroxyphenyl)-1,2,5-thiadiazolidin-3-one 1,1-dioxide] | ≥ 6.00 | ≥ 6.00 |
| O=C1CN(c2c(O)ccc(-c3cn(CC4CCCCC4)nc3F)c2F)S(=O)(=O)N1 [Compound 385, 5-(3-(1-(cyclohexylmethyl)-3-fluoro-1H-pyrazol-4-yl)-2-fluoro-6-hydroxyphenyl)-1,2,5-thiadiazolidin-3-one 1,1-dioxide] | ≥ 6.00 | ≥ 6.00 |
| O=C1CN(c2c(O)ccc(-c3cc(C4CCCCC4)n[nH]3)c2F)S(=O)(=O)N1 [Compound 371, 5-(3-(3-cyclohexyl-1H-pyrazol-5-yl)-2-fluoro-6-hydroxyphenyl)-1,2,5-thiadiazolidin-3-one 1,1-dioxide] | ≥ 6.00 | ≥ 6.00 |
| NC(=O)Cc1cc(-c2ccc(O)c(N3CC(=O)NS3(=O)=O)c2F)[nH]n1 [Compound 520, 2-(5-(3-(1,1-dioxido-4-oxo-1,2,5-thiadiazolidin-2-yl)-2-fluoro-4-hydroxyphenyl)-1H-pyrazol-3-yl)acetamide] | ≥ 6.00 | ≥ 6.00 |
| COC1CCN(c2cc(-c3ccc(O)c(N4CC(=O)NS4(=O)=O)c3F)[nH]n2)C1 (stereo not shown) [Compound 388, 5-(2-fluoro-6-hydroxy-3-(3-(3-methoxypyrrolidin-1-yl)-1H-pyrazol-5-yl)phenyl)-1,2,5-thiadiazolidin-3-one 1,1-dioxide] | ≥ 6.00 | ≥ 6.00 |
| O=C1CN(c2c(O)ccc(-c3cnn(Cc4cncc(F)c4)c3)c2F)S(=O)(=O)N1 [Compound 111, 5-(2-fluoro-3-(1-((5-fluoropyridin-3-yl)methyl)-1H-pyrazol-4-yl)-6-hydroxyphenyl)-1,2,5-thiadiazolidin-3-one 1,1-dioxide] | ≥ 6.00 | ≥ 6.00 |
| CC(C)N1CC=C(c2ccc(O)c(N3CC(=O)NS3(=O)=O)c2F)C1 [Compound 461, 5-(2-fluoro-6-hydroxy-3-(1-isopropyl-2,5-dihydro-1H-pyrrol-3-yl)phenyl)-1,2,5-thiadiazolidin-3-one 1,1-dioxide] | ≥ 6.00 | ≥ 6.00 |
| Cc1c(-c2cnn(CCC(C)C)c2)ccc(O)c1N1CC(=O)NS1(=O)=O [Compound 119, 5-(6-hydroxy-3-(1-isopentyl-1H-pyrazol-4-yl)-2-methylphenyl)-1,2,5-thiadiazolidin-3-one 1,1-dioxide] | ≥ 6.00 | ≥ 6.00 |
| CC(C)n1cnc(-c2ccc(O)c(N3CC(=O)NS3(=O)=O)c2F)c1 [Compound 165, 5-(2-fluoro-6-hydroxy-3-(1-isopropyl-1H-imidazol-4-yl)phenyl)-1,2,5-thiadiazolidin-3-one 1,1-dioxide] | ≥ 6.00 | ≥ 6.00 |
| CC(C1CCCCC1)n1cnc(-c2ccc(O)c(N3CC(=O)NS3(=O)=O)c2F)c1 (stereo not shown) [Compound 413, 5-(3-(1-(1-cyclohexylethyl)-1H-imidazol-4-yl)-2-fluoro-6-hydroxyphenyl)-1,2,5-thiadiazolidin-3-one 1,1-dioxide] | – | < 6.00 |
